Our source for the MIC values is US3945994A, “Novel acid compounds” (Gist-Brocades N.V., priority 1973, dated 1976).

Common to all, as to format: cell-based
For assay [1], the system named is Bacillus subtilis ATCC 6633. Conditions: ATCC6633, agar serial dilution, 24 hours at 37°C.
In assay [2] the test system is Staphylococcus aureus A 321. To be noted: A321, agar serial dilution, 24 hours at 37°C.
Assay [3] relates to Staphylococcus aureus A 355'. To be noted: agar serial dilution, 24 hours at 37°C.
Assay [4] deals with Staphylococcus aureus A 2000. Conditions: A2000, agar serial dilution, 24 hours at 37°C.
For assay [5], the system named is Staphylococcus aureus A 2001. To be noted: A2001, agar serial dilution, 24 hours at 37°C.
The subject of assay [6] is Streptococcus haemolyticus A 266. To be noted: A266, agar serial dilution, 24 hours at 37°C.
Assay [7] has as its system Streptococcus faecalis L 80. Conditions: Enterococcus faecalis, L80; agar serial dilution, 24 hours at 37°C.
In assay [8] the test system is Diplococcus pneumoniae L 54. To be noted: Streptococcus pneumoniae, L54; agar serial dilution, 24 hours at 37°C.
For assay [9], the system named is Haemophilus influenzae A 1030. To be noted: A1030, agar serial dilution, 24 hours at 37°C.
Assay [10] concerns Pasteurella multocida A 723. Conditions: A723, agar serial dilution, 24 hours at 37°C.
The subject of assay [11] is Klebsiella pneumoniae A 809. Conditions: A809, agar serial dilution, 24 hours at 37°C.
The next assay concerns Salmonella dublin P 43. To be noted: Salmonella enterica, P43; agar serial dilution, 24 hours at 37°C.
Assay [12] deals with Salmonella typhimurium R 127. To be noted: Salmonella enterica, agar serial dilution, 24 hours at 37°C.
The next assay has as its system Escherichia coli U 20. Conditions: U20, agar serial dilution, 24 hours at 37°C.
The test system of assay [13] is Pseudomonas aeruginosa H 10. Conditions: H10, agar serial dilution, 24 hours at 37°C.
Assay [14] has as its system Pseudomonas aeruginosa 2396. To be noted: agar serial dilution, 24 hours at 37°C.
Assay [15] has as its system Pseudomonas aeruginosa Wyeth A 1058. To be noted: WYETHA1058, agar serial dilution, 24 hours at 37°C.
For assay [16], the system named is Proteus rettgeri A 821. Conditions: Providencia rettgeri, A821; agar serial dilution, 24 hours at 37°C.
Another assay concerns Proteus mirabilis H 3. Conditions: H3, agar serial dilution, 24 hours at 37°C.
A further assay relates to Proteus mirabilis A 1200. To be noted: A1200, agar serial dilution, 24 hours at 37°C.
Another assay relates to Proteus morganii 2241. Conditions: Morganella morganii, agar serial dilution, 24 hours at 37°C.
Assay [17] relates to Salmonella typhimurium R172. Conditions: Salmonella enterica, agar serial dilution, 24 hours at 37°C.
The subject of assay [18] is Haemophilus influenzae A 1030. As to the kind of experiment: micro serial dilution test, MIC. Conditions: A1030, micro serial dilution (between brackets), 30°C or 37°C, about 18 hours.
Assay [19] concerns Proteus rettgeri A 821. As to the kind of experiment: micro serial dilution test, MIC. Conditions: Providencia rettgeri, A821; micro serial dilution (between brackets), 30°C or 37°C, about 18 hours.
Assay [20] relates to Streptococcus haemolyticus A 1088. To be noted: A1088, agar serial dilution, 24 hours at 37°C.
The next assay concerns Proteus mirabilis H3. In words: micro serial dilution test, MIC. To be noted: micro serial dilution (between brackets), 30°C or 37°C, about 18 hours.
The subject of another assay is Proteus mirabilis A1200. In words: micro serial dilution test, MIC. To be noted: micro serial dilution (between brackets), 30°C or 37°C, about 18 hours.

Converted amounts (≈) assume the structure as drawn. Where two headings read alike, the source gives them in different places.

In the case of `CCOC(=O)NNS(=O)(=O)NC(=O)N[C@@H](C(=O)N[C@@H]1C(=O)N2[C@@H]1SC(C)(C)[C@@H]2C(=O)O)c1ccccc1` [XV, D-6-[α-{3-(ethoxycarbonylhydrazinosulfonyl)-ureido}benzylcarbonamido]-penicillanic acid], the MIC worked out at 1 µg/mL (≈ 1.79 µM) in [1]; 1.5 µg/mL (≈ 2.69 µM) in assay [2]; 12.5 µg/mL (≈ 22.4 µM) in assay [3]; 12.5 µg/mL (≈ 22.4 µM) in assay [4]; 6 µg/mL (≈ 10.7 µM) in assay [5]; 0.5 µg/mL (≈ 0.895 µM) in assay [6]. For the same compound, the MIC came to 25 µg/mL (≈ 44.8 µM) in [7]; 9 µg/mL (≈ 16.1 µM) in assay [8]; 1.5 µg/mL (≈ 2.69 µM) in assay [9]; 0.25 µg/mL (≈ 0.448 µM) in [10]; 100 µg/mL (≈ 179 µM) in assay [11]; 12.5 µg/mL (≈ 22.4 µM) in the assay with Salmonella dublin P 43. For the same compound, the MIC is 50 µg/mL (≈ 89.5 µM) in [12]; 12.5 µg/mL (≈ 22.4 µM) with Escherichia coli U 20; greater than 100 µg/mL in assay [13]; 50 µg/mL (≈ 89.5 µM) in assay [14]; 100 µg/mL (≈ 179 µM) in assay [15]; 1 µg/mL (≈ 1.79 µM) in the assay with Proteus rettgeri A 821 [16]. The MIC turned out to be 3 µg/mL (≈ 5.37 µM) in the assay on Proteus mirabilis H 3, 1.5 µg/mL (≈ 2.69 µM) in the assay with Proteus mirabilis A 1200 and 6 µg/mL (≈ 10.7 µM) in the assay with Proteus morganii 2241.

`CC(=NS(=O)(=O)N[C@@H](C(=O)N[C@@H]1C(=O)N2[C@@H]1SC(C)(C)[C@@H]2C(=O)O)c1ccccc1)N(C)C` [XXI, D-6-[α-{1-(dimethylamino)-ethylideneamino-sulfonamido}-benzylcarbonamido]-penicillanic acid]: the MIC in [1] was 0.12 µg/mL (≈ 0.241 µM); in [2], 1.5 µg/mL (≈ 3.01 µM); in assay [6], 0.12 µg/mL (≈ 0.241 µM); in assay [7] it was 3 µg/mL (≈ 6.03 µM); in assay [8], 0.75 µg/mL (≈ 1.51 µM); in assay [10], 0.75 µg/mL (≈ 1.51 µM). For the same compound, the MIC is 100 µg/mL (≈ 201 µM) in assay [11]; 25 µg/mL (≈ 50.2 µM) against Salmonella dublin P 43; 100 µg/mL (≈ 201 µM) against Escherichia coli U 20; greater than 100 µg/mL in [13]; 100 µg/mL (≈ 201 µM) in [14]; greater than 100 µg/mL in assay [15]. The MIC amounted to 50 µg/mL (≈ 100 µM) with Proteus mirabilis H 3; 25 µg/mL (≈ 50.2 µM) in the assay on Proteus mirabilis A 1200; 25 µg/mL (≈ 50.2 µM) in the assay with Proteus morganii 2241; 100 µg/mL (≈ 201 µM) in assay [17]; 1.8 µg/mL (≈ 3.62 µM) in assay [18]; 0.6 µg/mL (≈ 1.21 µM) against Proteus rettgeri A 821 [19].

Regarding `CN1CCCC1=NS(=O)(=O)N[C@@H](C(=O)N[C@@H]1C(=O)N2[C@@H]1SC(C)(C)[C@@H]2C(=O)O)c1ccccc1` [XXIII, D-6-[α-{1-(methylpyrrolidin-2-ylidene)-amino-sulfonamido}-benzylcarbonamido] -penicillanic acid], the MIC in assay [1] was determined as 0.12 µg/mL (≈ 0.235 µM); in assay [2], 1 µg/mL (≈ 1.96 µM); in assay [3] it was 6 µg/mL (≈ 11.8 µM); in assay [4], 6 µg/mL (≈ 11.8 µM); in assay [5], 3 µg/mL (≈ 5.89 µM); in assay [6] it was 0.06 µg/mL (≈ 0.118 µM). The MIC in [7] is 1.5 µg/mL (≈ 2.94 µM); in assay [8], 0.5 µg/mL (≈ 0.981 µM); in assay [10], 0.5 µg/mL (≈ 0.981 µM); in assay [11], greater than 100 µg/mL; in the assay on Salmonella dublin P 43, 50 µg/mL (≈ 98.1 µM); against Escherichia coli U 20, 100 µg/mL (≈ 196 µM). The MIC in assay [13] was greater than 100 µg/mL; in [14], greater than 100 µg/mL; in [15], greater than 100 µg/mL; in the assay with Proteus mirabilis H 3, 50 µg/mL (≈ 98.1 µM); in the assay with Proteus mirabilis A 1200, 12.5 µg/mL (≈ 24.5 µM); against Proteus morganii 2241, 50 µg/mL (≈ 98.1 µM). Besides, the MIC came to 100 µg/mL (≈ 196 µM) in assay [17], 125 µg/mL (≈ 245 µM) in assay [18] and 0.9 µg/mL (≈ 1.77 µM) against Proteus rettgeri A 821 [19].

As to `CC1(C)S[C@@H]2[C@H](NC(=O)[C@H](NC(=O)NS(=O)(=O)NCc3ccccc3)c3ccccc3)C(=O)N2[C@H]1C(=O)O` [XXXII, D-6-[α-{3-(benzylaminosulfonyl)-ureido}-benzylcarbonamido]-penicillanic acid], the MIC was 0.5 µg/mL (≈ 0.89 µM) in assay [1]; 6 µg/mL (≈ 10.7 µM) in [3]; 6 µg/mL (≈ 10.7 µM) in assay [4]; 6 µg/mL (≈ 10.7 µM) in assay [5]; 12.5 µg/mL (≈ 22.3 µM) in assay [7]; 50 µg/mL (≈ 89 µM) in [8]. Moreover, the MIC was found to be 0.5 µg/mL (≈ 0.89 µM) in assay [10]; 12.5 µg/mL (≈ 22.3 µM) in assay [11]; 6 µg/mL (≈ 10.7 µM) in the assay on Salmonella dublin P 43; 6 µg/mL (≈ 10.7 µM) with Escherichia coli U 20; 100 µg/mL (≈ 178 µM) in [13]; 25 µg/mL (≈ 44.5 µM) in [14]. Further, the MIC came to 12.5 µg/mL (≈ 22.3 µM) in assay [15]; 6 µg/mL (≈ 10.7 µM) against Proteus mirabilis H 3; 3 µg/mL (≈ 5.34 µM) in the assay with Proteus mirabilis A 1200; 12.5 µg/mL (≈ 22.3 µM) against Proteus morganii 2241; 0.25 µg/mL (≈ 0.445 µM) in assay [20]; 25 µg/mL (≈ 44.5 µM) in assay [17]. The MIC in [18] came out at 23 µg/mL (≈ 41 µM); in the assay on Proteus rettgeri A 821 [19], 0.025 µg/mL (≈ 0.0445 µM).

On to `CC1(C)S[C@@H]2[C@H](NC(=O)C(C(=O)O)c3ccccc3)C(=O)N2[C@H]1C(=O)O` (stereo partly drawn) [carbenicillin, reference compound], for which the MIC in assay [1] is 0.06 µg/mL (≈ 0.159 µM); in [2] it was 0.75 µg/mL (≈ 1.98 µM); in [4], 3 µg/mL (≈ 7.93 µM); in assay [5], 3 µg/mL (≈ 7.93 µM); in assay [7], 25 µg/mL (≈ 66.1 µM); in [8] it was 0.5 µg/mL (≈ 1.32 µM). Further, the MIC in assay [10] was 0.25 µg/mL (≈ 0.661 µM); in assay [11], greater than 100 µg/mL; in the assay on Salmonella dublin P 43, 1.5 µg/mL (≈ 3.96 µM); in the assay on Escherichia coli U 20, 1.5 µg/mL (≈ 3.96 µM); in [13], 100 µg/mL (≈ 264 µM); in [14] it was 25 µg/mL (≈ 66.1 µM). In addition, the MIC came out at 25 µg/mL (≈ 66.1 µM) in assay [15]; 1.5 µg/mL (≈ 3.96 µM) in the assay with Proteus morganii 2241; 0.25 µg/mL (≈ 0.661 µM) in [20]; 6 µg/mL (≈ 15.9 µM) in assay [17]; 90 µg/mL (≈ 238 µM) in [18]; 0.12 µg/mL (≈ 0.317 µM) in the assay with Proteus rettgeri A 821 [19]. The MIC in the assay on Proteus mirabilis H3 was 0.6 µg/mL (≈ 1.59 µM); in the assay on Proteus mirabilis A1200, 0.45 µg/mL (≈ 1.19 µM).

With `Cc1nnc(SCC2=C(C(=O)O)N3C(=O)[C@@H](NC(=O)Cn4cnnn4)[C@H]3SC2)s1` [cephazolin, reference compound], the MIC in assay [1] is 0.25 µg/mL (≈ 0.55 µM); in assay [2] it was 0.25 µg/mL (≈ 0.55 µM); in [3], 1.5 µg/mL (≈ 3.3 µM); in [4] it was 0.75 µg/mL (≈ 1.65 µM); in assay [5], 0.5 µg/mL (≈ 1.1 µM); in assay [7], 12.5 µg/mL (≈ 27.5 µM). Besides, the MIC is 0.25 µg/mL (≈ 0.55 µM) in assay [8]; 1.5 µg/mL (≈ 3.3 µM) in assay [10]; 1.5 µg/mL (≈ 3.3 µM) in assay [11]; 1.5 µg/mL (≈ 3.3 µM) with Salmonella dublin P 43; 1.5 µg/mL (≈ 3.3 µM) in the assay with Escherichia coli U 20; greater than 100 µg/mL in [13]. For the same compound, the MIC was greater than 100 µg/mL in assay [14]; greater than 100 µg/mL in assay [15]; 6 µg/mL (≈ 13.2 µM) in the assay on Proteus mirabilis H 3; 6 µg/mL (≈ 13.2 µM) against Proteus mirabilis A 1200; 25 µg/mL (≈ 55 µM) against Proteus morganii 2241; 0.12 µg/mL (≈ 0.264 µM) in [20]. In addition, the MIC in [17] was 3 µg/mL (≈ 6.6 µM); against Proteus rettgeri A 821 [19], 1.2 µg/mL (≈ 2.64 µM).
